Assay results: patent publication US11352340B2, “Pyridine and pyridimine compounds as PI3K-gamma inhibitors” (Incyte Corporation, priority 2016, dated 2022)
pIC50: −log10 of the molar value. Counter-ions that a name gives are not always drawn.

How the values were obtained:
[1] = test system: Phosphorylated Ribosomal Protein S6 (RPS6) in THP-1 cells; assay: THP-1 RPS6 ELISA Assay; type: cell-based, Human; conditions: Homo sapiens, MCP-1 stimulated, phospho-RPS6 ELISA, read-out: THP p-RPS6 ELISA IC50
Method in brief: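 Serum-starved THP-1 cells (2×10^5/well, RPMI) preincubated with compound 2 h at 37° C, then stimulated with 10 nM MCP-1 for 15 min. Lysates assayed by phospho-RPS6 ELISA, absorbance 450 nm (540 nm correction); IC50 from percent inhibition versus log concentration.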

[2] = target: PI3Kδ (p110δ/p85α) Recombinant Human Protein (Homo sapiens (Human), UniProt O00329); assay: PI3Kδ Scintillation Proximity Assay; type: biochemical; conditions: read-out: PI3K-delta SPA IC50
Method in brief: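 Recombinant human p110δ/p85α (3.4 nM) phosphorylates 20 μM di-octanoyl PIP2 using 2 μM ATP spiked with [γ-33P]ATP, 120 min, room temperature, pH 6.7, 2% DMSO. Product measured by scintillation proximity; IC50 from dose-response fit.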

[3] = target: PI3Kγ (p110γ) Recombinant Human Protein (Homo sapiens (Human), UniProt P48736); assay: PI3K-γ Scintillation Proximity Assay; type: biochemical; conditions: read-out: PI3K-gamma SPA IC50
Method in brief: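 Recombinant human p110γ (13 nM) with 20 μM PIP2 and 2 μM ATP plus 0.5 μCi [γ-33P]ATP in 20 mM MOPS pH 6.7, 10 mM MgCl2, 5 mM DTT, 0.03% CHAPS, 2% DMSO, 120 min at room temperature. Product captured on WGA SPA beads and counted; IC50 fitted from % of solvent control versus log concentration.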

Chain of PI3Kγ (p110γ) Recombinant Human Protein (P48736 whole entry): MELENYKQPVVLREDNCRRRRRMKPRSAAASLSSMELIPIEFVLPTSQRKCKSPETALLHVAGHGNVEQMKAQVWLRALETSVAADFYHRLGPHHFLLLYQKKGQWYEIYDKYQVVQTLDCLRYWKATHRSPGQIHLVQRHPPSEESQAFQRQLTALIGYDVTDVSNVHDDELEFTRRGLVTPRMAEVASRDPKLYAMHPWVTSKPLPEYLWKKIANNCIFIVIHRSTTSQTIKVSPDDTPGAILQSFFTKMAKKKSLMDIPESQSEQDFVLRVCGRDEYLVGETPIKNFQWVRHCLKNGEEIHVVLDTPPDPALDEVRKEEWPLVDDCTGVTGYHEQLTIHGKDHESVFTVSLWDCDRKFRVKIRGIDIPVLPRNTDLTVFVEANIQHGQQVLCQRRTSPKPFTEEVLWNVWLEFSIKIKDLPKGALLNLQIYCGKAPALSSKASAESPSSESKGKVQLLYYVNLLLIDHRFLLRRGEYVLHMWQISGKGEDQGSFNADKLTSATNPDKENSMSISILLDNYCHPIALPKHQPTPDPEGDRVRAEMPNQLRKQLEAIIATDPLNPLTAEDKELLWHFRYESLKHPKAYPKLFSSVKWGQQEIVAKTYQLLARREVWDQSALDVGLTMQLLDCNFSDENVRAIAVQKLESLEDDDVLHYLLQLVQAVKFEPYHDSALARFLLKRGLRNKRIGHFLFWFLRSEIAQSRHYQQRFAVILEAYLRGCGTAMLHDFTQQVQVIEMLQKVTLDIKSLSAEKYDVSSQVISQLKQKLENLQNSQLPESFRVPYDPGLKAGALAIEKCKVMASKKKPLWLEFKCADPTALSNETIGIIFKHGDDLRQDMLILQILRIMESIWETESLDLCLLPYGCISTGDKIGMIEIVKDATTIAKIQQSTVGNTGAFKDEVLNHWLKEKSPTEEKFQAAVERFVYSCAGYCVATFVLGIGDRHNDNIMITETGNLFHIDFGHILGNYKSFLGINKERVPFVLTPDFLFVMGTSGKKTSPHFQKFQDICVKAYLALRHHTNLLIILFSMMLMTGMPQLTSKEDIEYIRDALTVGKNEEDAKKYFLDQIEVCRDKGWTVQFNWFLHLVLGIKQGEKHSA
Chain of PI3Kδ (p110δ/p85α) Recombinant Human Protein (O00329 whole entry): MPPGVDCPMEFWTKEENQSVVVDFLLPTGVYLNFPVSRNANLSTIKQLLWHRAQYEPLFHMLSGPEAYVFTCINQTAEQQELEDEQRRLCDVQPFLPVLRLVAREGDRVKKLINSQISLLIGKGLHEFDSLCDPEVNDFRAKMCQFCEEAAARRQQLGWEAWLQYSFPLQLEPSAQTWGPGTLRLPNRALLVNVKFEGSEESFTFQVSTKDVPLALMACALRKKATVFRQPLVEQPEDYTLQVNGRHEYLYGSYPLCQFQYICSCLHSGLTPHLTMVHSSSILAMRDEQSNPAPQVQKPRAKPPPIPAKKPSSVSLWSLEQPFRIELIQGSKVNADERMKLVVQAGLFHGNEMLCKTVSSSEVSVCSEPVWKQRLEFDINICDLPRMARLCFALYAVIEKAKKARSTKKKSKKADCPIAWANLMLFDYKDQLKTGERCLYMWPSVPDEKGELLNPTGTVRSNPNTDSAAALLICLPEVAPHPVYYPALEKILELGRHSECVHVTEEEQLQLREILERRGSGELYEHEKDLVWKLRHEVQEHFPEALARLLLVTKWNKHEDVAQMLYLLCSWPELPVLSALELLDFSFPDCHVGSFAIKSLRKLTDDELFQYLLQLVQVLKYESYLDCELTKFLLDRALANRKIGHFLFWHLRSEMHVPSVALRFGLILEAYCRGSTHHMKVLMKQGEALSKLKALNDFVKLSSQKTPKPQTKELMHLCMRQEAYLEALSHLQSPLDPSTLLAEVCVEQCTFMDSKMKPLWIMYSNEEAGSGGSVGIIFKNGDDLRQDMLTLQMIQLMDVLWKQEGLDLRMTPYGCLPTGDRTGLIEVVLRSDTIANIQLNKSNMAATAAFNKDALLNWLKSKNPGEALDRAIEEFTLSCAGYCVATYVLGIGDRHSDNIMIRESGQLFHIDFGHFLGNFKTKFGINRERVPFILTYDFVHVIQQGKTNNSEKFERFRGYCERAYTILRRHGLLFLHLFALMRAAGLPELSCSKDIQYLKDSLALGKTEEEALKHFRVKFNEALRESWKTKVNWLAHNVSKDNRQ
Chain of PI3Kδ (p110δ/p85α) Recombinant Human Protein (P27986 whole entry partner): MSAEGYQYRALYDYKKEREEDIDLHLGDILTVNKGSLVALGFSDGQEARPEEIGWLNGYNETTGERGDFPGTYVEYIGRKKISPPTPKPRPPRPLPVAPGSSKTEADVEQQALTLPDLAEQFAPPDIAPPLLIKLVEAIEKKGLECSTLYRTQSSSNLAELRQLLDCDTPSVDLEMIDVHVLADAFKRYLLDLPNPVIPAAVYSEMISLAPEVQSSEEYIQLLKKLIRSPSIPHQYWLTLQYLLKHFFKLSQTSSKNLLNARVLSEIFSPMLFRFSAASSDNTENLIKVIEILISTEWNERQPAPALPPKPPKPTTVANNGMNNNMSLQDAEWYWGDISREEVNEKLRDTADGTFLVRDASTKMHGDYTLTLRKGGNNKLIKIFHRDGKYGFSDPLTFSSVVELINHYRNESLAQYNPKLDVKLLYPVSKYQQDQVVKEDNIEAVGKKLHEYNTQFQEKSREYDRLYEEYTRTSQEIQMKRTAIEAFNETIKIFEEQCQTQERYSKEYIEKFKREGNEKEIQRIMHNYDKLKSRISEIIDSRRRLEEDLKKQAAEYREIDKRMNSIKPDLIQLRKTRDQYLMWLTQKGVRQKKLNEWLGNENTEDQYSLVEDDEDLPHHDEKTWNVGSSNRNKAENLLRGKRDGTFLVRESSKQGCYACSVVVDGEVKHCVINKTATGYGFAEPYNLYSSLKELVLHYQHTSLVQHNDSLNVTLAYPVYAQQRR

| Structure (SMILES) | pIC50 [1] | pIC50 [2] | pIC50 [3] |
| --- | --- | --- | --- |
| Cc1nc(-c2cc(-c3cncc(C(=O)N4CCC5(CC4)COC5)c3)ccn2)[nH]c1C [Example 165, (2′-(4,5-Dimethyl-1H-imidazol-2-yl)-3,4′-bipyridin-5-yl)(2-oxa-7-azaspiro[3.5]nonan-7-yl)methanone trifluoroacetate salt] | ≥ 6.52 | ≥ 7.00 | ≥ 7.30 |
| Cc1nc(-c2cc(-c3cncc(C(=O)N4CCC(=O)C4)c3)ccn2)[nH]c1C [Example 168, 1-(2′-(4,5-Dimethyl-1H-imidazol-2-yl)-3,4′-bipyridine-5-carbonyl)pyrrolidin-3-one trifluoroacetate salt] | ≥ 6.52 | ≥ 7.30 | ≥ 7.30 |
| Cc1nc(-c2cc(-c3cncc(C(=O)N4C[C@H](CO)[C@@H](C)C4)c3)ccn2)[nH]c1C [Example 172, ((3R,4R)-1-{[2′-(4,5-Dimethyl-1H-imidazol-2-yl)-3,4′-bipyridin-5-yl]carbonyl}-4-methylpyrrolidin-3-yl)methanol trifluoroacetate salt] | 6.00 to 6.52 | ≥ 7.30 | ≥ 7.30 |
| Cc1nc(-c2cc(-c3cncc(C(=O)N4CCC(F)(F)C4)c3)ccn2)[nH]c1C [Example 173, 5-[(3,3-Difluoropyrrolidin-1-yl)carbonyl]-2′-(4,5-dimethyl-1H-imidazol-2-yl)-3,4′-bipyridine trifluoroacetate salt] | ≥ 6.52 | ≥ 7.30 | ≥ 7.30 |
| Cc1nc(-c2cc(-c3cncc(C(=O)N4C5CCC4CC5)c3)ccn2)[nH]c1C [Example 179, 5-(7-Azabicyclo[2.2.1]hept-7-ylcarbonyl)-2′-(4,5-dimethyl-1H-imidazol-2-yl)-3,4′-bipyridine trifluoroacetate salt] | ≥ 6.52 | ≥ 7.00 | ≥ 7.30 |
| Cc1nc(-c2cc(-c3cncc(C(=O)N4CC(C)(C)C4)c3)ccn2)[nH]c1C [Example 185, 5-[(3,3-Dimethylazetidin-1-yl)carbonyl]-2′-(4,5-dimethyl-1H-imidazol-2-yl)-3,4′-bipyridine trifluoroacetate salt] | ≥ 6.52 | ≥ 7.00 | ≥ 7.30 |
| Cc1nc(-c2cc(-c3cncc(C(=O)N4CCC(c5ccccc5)CC4)c3)ccn2)[nH]c1C [Example 186, 2′-(4,5-Dimethyl-1H-imidazol-2-yl)-5-[(4-phenylpiperidin-1-yl)carbonyl]-3,4′-bipyridine trifluoroacetate salt] | ≥ 6.52 | ≥ 7.30 | ≥ 7.30 |
| Cc1nc(-c2cc(-c3cncc(C(=O)N4CC[C@H]5CCCC[C@@H]5C4)c3)ccn2)[nH]c1C [Example 187, 2′-(4,5-Dimethyl-1H-imidazol-2-yl)-5-[(4aR,8aS)-octahydroisoquinolin-2(1H)-ylcarbonyl]-3,4′-bipyridine trifluoroacetate salt] | 6.00 to 6.52 | ≥ 7.00 | ≥ 7.30 |
| Cc1nc(-c2cc(-c3cncc(C(=O)N4CCC4)c3)ccn2)[nH]c1C [Example 191, 5-(Azetidin-1-ylcarbonyl)-2′-(4,5-dimethyl-1H-imidazol-2-yl)-3,4′-bipyridine trifluoroacetate salt] | ≥ 6.52 | ≥ 7.30 | ≥ 7.30 |
| Cc1nc(-c2cc(-c3cncc(C(=O)NCc4ccccc4)c3)ccn2)[nH]c1C [Example 192, N-Benzyl-2′-(4,5-dimethyl-1H-imidazol-2-yl)-3,4′-bipyridine-5-carboxamide trifluoroacetate salt] | 5.30 to 6.00 | ≥ 7.00 | ≥ 7.00 |
| Cc1nc(-c2cc(-c3cncc(C(=O)N(C)Cc4ccccc4)c3)ccn2)[nH]c1C [Example 193, N-Benzyl-2′-(4,5-dimethyl-1H-imidazol-2-yl)-N-methyl-3,4′-bipyridine-5-carboxamide trifluoroacetate salt] | ≥ 6.52 | ≥ 7.30 | ≥ 7.30 |
| Cc1nc(-c2cc(-c3cncc(C(=O)N(C)c4ccccc4)c3)ccn2)[nH]c1C [Example 194, 2′-(4,5-Dimethyl-1H-imidazol-2-yl)-N-methyl-N-phenyl-3,4′-bipyridine-5-carboxamide trifluoroacetate salt] | ≥ 6.52 | ≥ 7.30 | ≥ 7.30 |
| Cc1nc(-c2cc(-c3cncc(C(=O)N4CCC(c5cnccn5)C4)c3)ccn2)[nH]c1C (stereo not drawn) [Example 197, 2′-(4,5-Dimethyl-1H-imidazol-2-yl)-5-[(3-pyrazin-2-ylpyrrolidin-1-yl)carbonyl]-3,4′-bipyridine trifluoroacetate salt] | 6.00 to 6.52 | ≥ 7.30 | ≥ 7.00 |
| CCN(C)C(=O)c1cncc(-c2ccnc(-c3nc(C)c(C)[nH]3)c2)c1 [Example 198, 2′-(4,5-Dimethyl-1H-imidazol-2-yl)-N-ethyl-N-methyl-3,4′-bipyridine-5-carboxamide trifluoroacetate salt] | 6.00 to 6.52 | ≥ 7.30 | ≥ 7.30 |
| COC1CN(C(=O)c2cncc(-c3ccnc(-c4nc(C)c(C)[nH]4)c3)c2)C1 [Example 199, 2′-(4,5-Dimethyl-1H-imidazol-2-yl)-5-[(3-methoxyazetidin-1-yl)carbonyl]-3,4′-bipyridine] | ≥ 6.52 | ≥ 7.30 | ≥ 7.30 |
| Cc1nc(-c2cc(-c3cncc(C(=O)N(C)CCO)c3)ccn2)[nH]c1C [Example 201, 2′-(4,5-Dimethyl-1H-imidazol-2-yl)-N-(2-hydroxyethyl)-N-methyl-3,4′-bipyridine-5-carboxamide trifluoroacetate salt] | 6.00 to 6.52 | ≥ 6.30 | ≥ 7.30 |
| Cc1nc(-c2cc(-c3cncc(C(=O)NCC4CC4)c3)ccn2)[nH]c1C [Example 202, N-(Cyclopropylmethyl)-2′-(4,5-dimethyl-1H-imidazol-2-yl)-3,4′-bipyridine-5-carboxamide trifluoroacetate salt] | 6.00 to 6.52 | ≥ 7.00 | ≥ 7.00 |
| Cc1nc(-c2cc(-c3cncc(C(=O)N(C)CC#N)c3)ccn2)[nH]c1C [Example 203, N-(Cyanomethyl)-2′-(4,5-dimethyl-1H-imidazol-2-yl)-N-methyl-3,4′-bipyridine-5-carboxamide] | 6.00 to 6.52 | ≥ 7.00 | ≥ 7.30 |
| Cc1nc(-c2cc(-c3cncc(C(=O)N(C)CC4(CO)CC4)c3)ccn2)[nH]c1C [Example 205, 2′-(4,5-Dimethyl-1H-imidazol-2-yl)-N-{[1-(hydroxymethyl)cyclopropyl]methyl}-N-methyl-3,4′-bipyridine-5-carboxamide trifluoroacetate salt] | 6.00 to 6.52 | ≥ 7.00 | ≥ 7.30 |
| Cc1nc(-c2cc(-c3cncc(C(=O)NCC4CCC4)c3)ccn2)[nH]c1C [Example 206, N-(Cyclobutylmethyl)-2′-(4,5-dimethyl-1H-imidazol-2-yl)-3,4′-bipyridine-5-carboxamide trifluoroacetate salt] | 5.30 to 6.00 | ≥ 7.00 | ≥ 7.00 |
| Cc1nc(-c2cc(-c3cncc(C(=O)NCC4CCCC4)c3)ccn2)[nH]c1C [Example 207, N-(Cyclopentylmethyl)-2′-(4,5-dimethyl-1H-imidazol-2-yl)-3,4′-bipyridine-5-carboxamide trifluoroacetate salt] | 5.30 to 6.00 | ≥ 6.30 | ≥ 7.30 |
| Cc1nc(-c2cc(-c3cncc(C(=O)NC(C)(C)C)c3)ccn2)[nH]c1C [Example 208, N-(tert-Butyl)-2′-(4,5-dimethyl-1H-imidazol-2-yl)-3,4′-bipyridine-5-carboxamide trifluoroacetate salt] | 5.30 to 6.00 | ≥ 7.00 | ≥ 7.30 |
| CCC1CCN(C(=O)c2cncc(-c3ccnc(-c4nc(C)c(C)[nH]4)c3)c2)C1 (stereo not drawn) [Example 211, 2′-(4,5-Dimethyl-1H-imidazol-2-yl)-5-[(3-ethylpyrrolidin-1-yl)carbonyl]-3,4′-bipyridine trifluoroacetate salt] | ≥ 6.52 | ≥ 7.30 | ≥ 7.30 |
| Cc1nc(-c2cc(-c3cncc(C(=O)N4CCC5(CC5)C4)c3)ccn2)[nH]c1C [Example 212, 5-(5-Azaspiro[2.4]hept-5-ylcarbonyl)-2′-(4,5-dimethyl-1H-imidazol-2-yl)-3,4′-bipyridine trifluoroacetate salt] | ≥ 6.52 | ≥ 7.30 | ≥ 7.30 |
| CO[C@H]1CCN(C(=O)c2cncc(-c3ccnc(-c4nc(C)c(C)[nH]4)c3)c2)C1 [Example 212B, 2′-(4,5-Dimethyl-1H-imidazol-2-yl)-5-{[(3S)-3-methoxypyrrolidin-1-yl]carbonyl}-3,4′-bipyridine trifluoroacetate salt] | 6.00 to 6.52 | ≥ 7.00 | ≥ 7.30 |
| Cc1nc(-c2cc(C3=CCCN(S(=O)(=O)c4ccccc4)C3)ccn2)[nH]c1C [Example 214, 2′-(4,5-Dimethyl-1H-imidazol-2-yl)-1-(phenylsulfonyl)-1,2,5,6-tetrahydro-3,4′-bipyridine Trifluoroacetate Salt] | < 5.30 | ≥ 6.30 | ≥ 7.30 |
